Target: T1, human c-Met (Homo sapiens, UniProt P08581)
T1 construct: Recombinant GST-tagged cytosolic domains of human c-Met; 6xHis; made in house; host or cells: Sf9 or Sf21 insect cells (baculovirus)
Experiment: in vitro kinase assay (homogeneous time-resolved tyrosine kinase assay, METKA)
Type: biochemical
Details: recombinant GST-tagged c-Met cytosolic domain, HTRF, 50 μM MgATP; read-out: Biological Activity (METKA IC50) Activity Code
How it was run: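 HTRF assay with GST-tagged cytosolic c-Met domain (0.2 nM), 0.5 μM biotinylated peptide, 50 μM MgATP, pH 7.4, 5% DMSO, 80 min at room temperature; Eu-anti-pTyr/SA-APC detection, IC50 by 4-parameter fit. Other kinases identical except enzyme level: mouse c-Met 0.2, Ron 2.5, KDR 8, IGFR 0.24, EGFR 0.24, FGFR 0.14, Mer 16, TrkA 8, Tie2 8 nM.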

T1 sequence (P08581 956-1390 limits assumed): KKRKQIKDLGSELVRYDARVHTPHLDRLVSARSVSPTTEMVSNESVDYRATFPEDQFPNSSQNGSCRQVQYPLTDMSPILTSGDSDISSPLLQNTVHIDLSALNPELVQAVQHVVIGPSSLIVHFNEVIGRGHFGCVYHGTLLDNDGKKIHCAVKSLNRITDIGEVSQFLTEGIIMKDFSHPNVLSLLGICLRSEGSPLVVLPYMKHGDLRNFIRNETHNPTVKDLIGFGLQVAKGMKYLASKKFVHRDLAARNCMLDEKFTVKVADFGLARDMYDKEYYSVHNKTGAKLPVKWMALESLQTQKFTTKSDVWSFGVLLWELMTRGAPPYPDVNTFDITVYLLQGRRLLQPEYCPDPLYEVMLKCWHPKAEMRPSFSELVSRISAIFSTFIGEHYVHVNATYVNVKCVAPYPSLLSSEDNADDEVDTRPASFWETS

| Structure (SMILES) | IC50 [nM] |
| --- | --- |
| CCn1cc(-n2ccc(=O)c(COc3ccc4ncc(-c5ccc(C(F)(F)F)cc5)cc4c3)n2)cn1 [Example 89, 1-(1-ethyl-1H-pyrazol-4-yl)-3-[({3-[4-(trifluoromethyl)phenyl]quinolin-6-yl}oxy)methyl]pyridazin-4(1H)-one] | < 100 |
| CCn1cc(-n2ccc(=O)c(COc3ccc4ncc(-c5cccc(F)c5)cc4c3)n2)cn1 [Example 90, 1-(1-ethyl-1H-pyrazol-4-yl)-3-({[3-(3-fluorophenyl)quinolin-6-yl]oxy}methyl)pyridazin-4(1H)-one] | < 100 |
| CCn1cc(-n2ccc(=O)c(COc3ccc4ncc(-c5ccccc5)cc4c3)n2)cn1 [Example 91, 1-(1-ethyl-1H-pyrazol-4-yl)-3-{[(3-phenylquinolin-6-yl)oxy]methyl}pyridazin-4(1H)-one] | < 100 |
| Cn1cc(-n2ccc(=O)c(COc3ccc4ncc(-c5cnn(C6CN(C(=O)OC(C)(C)C)C6)c5)cc4c3)n2)cn1 [Example 92, tert-Butyl 3-[4-(6-{[1-(1-methyl-1H-pyrazol-4-yl)-4-oxo-1,4-dihydropyridazin-3-yl]methoxy}quinolin-3-yl)-1H-pyrazol-1-yl]azetidine-1-carboxylate] | < 100 |
| Cn1cc(-n2ccc(=O)c(COc3ccc4ncc(-c5cnn(C6CNC6)c5)cc4c3)n2)cn1 [Example 93, 3-[({3-[1-(Azetidin-3-yl)-1H-pyrazol-4-yl]quinolin-6-yl}oxy)methyl]-1-(1-methyl-1H-pyrazol-4-yl)pyridazin-4(1H)-one] | < 100 |
| Cn1cc(-n2ccc(=O)c(COc3ccc4ncc(-c5cnn(C6CCNCC6)c5)cc4c3)n2)cn1 [Example 94, 1-(1-methyl-1H-pyrazol-4-yl)-3-[({3-[1-(piperidin-4-yl)-1H-pyrazol-4-yl]quinolin-6-yl}oxy)methyl]pyridazin-4(1H)-one] | < 100 |
| COC(=O)c1cnc2ccc(OCc3nn(-c4cnn(C)c4)ccc3=O)cc2c1 [Example 95, Methyl 6-{[1-(1-methyl-1H-pyrazol-4-yl)-4-oxo-1,4-dihydropyridazin-3-yl]methoxy}quinoline-3-carboxylate] | 100 to 1000 |
| Cn1cc(-n2ccc(=O)c(COc3ccc4ncc(-c5cnn(C6COC6)c5)cc4c3)n2)cn1 [Example 96, 1-(1-Methyl-1H-pyrazol-4-yl)-3-[({3-[1-(oxetan-3-yl)-1H-pyrazol-4-yl]quinolin-6-yl}oxy)methyl]pyridazin-4(1H)-one] | < 100 |
| Cn1cc(-n2ccc(=O)c(COc3ccc4nccc(Cl)c4c3)n2)cn1 [Example 97, 3-{[(4-Chloroquinolin-6-yl)oxy]methyl}-1-(1-methyl-1H-pyrazol-4-yl)pyridazin-4(1H)-one] | < 100 |
| CCc1ccnc2ccc(OCc3nn(-c4cnn(C)c4)ccc3=O)cc12 [Example 98, 3-{[(4-Ethylquinolin-6-yl)oxy]methyl}-1-(1-methyl-1H-pyrazol-4-yl)pyridazin-4(1H)-one] | < 100 |
| COCCOc1cnc2ccc(SCc3nn(-c4cnn(C)c4)ccc3=O)cc2c1 [Example 99, 3-({[3-(2-Methoxyethoxy)quinolin-6-yl]sulfanyl}methyl)-1-(1-methyl-1H-pyrazol-4-yl)pyridazin-4(1H)-one] | < 100 |
| CCOc1cnc2ccc(SCc3nn(-c4cnn(C)c4)ccc3=O)cc2c1 [Example 100, 3-{[(3-ethoxyquinolin-6-yl)sulfanyl]methyl}-1-(1-methyl-1H-pyrazol-4-yl)pyridazin-4(1H)-one] | < 100 |
| Cn1cc(-n2ccc(=O)c(CSc3ccc4ncccc4c3)n2)cn1 [Example 101, 1-(1-Methyl-1H-pyrazol-4-yl)-3-[(quinolin-6-ylsulfanyl)methyl]pyridazin-4(1H)-one] | < 100 |
| COCCOc1cnc2ccc(NCc3nn(-c4cnn(C)c4)ccc3=O)cc2c1 [Example 102, 3-({[3-(2-Methoxyethoxy)quinolin-6-yl]amino}methyl)-1-(1-methyl-1H-pyrazol-4-yl)pyridazin-4(1H)-one] | < 100 |

Results, then the compound that gave them:

| IC50 [nM] | Structure (SMILES) |
| --- | --- |
| < 100 | CCn1cc(-n2ccc(=O)c(COc3ccc4ncc(-c5cnn(CCOC)c5)cc4c3)n2)cn1 [Example 77, 1-(1-ethyl-1H-pyrazol-4-yl)-3-[({3-[1-(2-methoxyethyl)-1H-pyrazol-4-yl]quinolin-6-yl}oxy)methyl]pyridazin-4(1H)-one] |
| < 100 | CCn1cc(-n2ccc(=O)c(COc3ccc4ncc(-c5ccc(F)cc5)cc4c3)n2)cn1 [Example 78, 1-(1-ethyl-1H-pyrazol-4-yl)-3-({[3-(4-fluorophenyl)quinolin-6-yl]oxy}methyl)pyridazin-4(1H)-one] |
| < 100 | CCn1cc(-n2ccc(=O)c(COc3ccc4ncc(-c5ccc(OC)cc5)cc4c3)n2)cn1 [Example 79, 1-(1-ethyl-1H-pyrazol-4-yl)-3-({[3-(4-methoxyphenyl)quinolin-6-yl]oxy}methyl)pyridazin-4(1H)-one] |
| < 100 | CCn1cc(-n2ccc(=O)c(COc3ccc4ncc(-c5ccncc5)cc4c3)n2)cn1 [Example 80, 1-(1-ethyl-1H-pyrazol-4-yl)-3-{[(3-pyridin-4-ylquinolin-6-yl)oxy]methyl}pyridazin-4(1H)-one] |
| < 100 | CCn1cc(-n2ccc(=O)c(COc3ccc4ncc(-c5ccc(C#N)nc5)cc4c3)n2)cn1 [Example 81, 5-(6-{[1-(1-ethyl-1H-pyrazol-4-yl)-4-oxo-1,4-dihydropyridazin-3-yl]methoxy}quinolin-3-yl)pyridine-2-carbonitrile] |
| < 100 | CCn1cc(-n2ccc(=O)c(COc3ccc4ncc(-c5ccc(OC)nc5)cc4c3)n2)cn1 [Example 82, 1-(1-ethyl-1H-pyrazol-4-yl)-3-({[3-(6-methoxypyridin-3-yl)quinolin-6-yl]oxy}methyl)pyridazin-4(1H)-one] |
| < 100 | CCn1cc(-n2ccc(=O)c(COc3ccc4ncc(-c5ccccc5F)cc4c3)n2)cn1 [Example 83, 1-(1-ethyl-1H-pyrazol-4-yl)-3-({[3-(2-fluorophenyl)quinolin-6-yl]oxy}methyl)pyridazin-4(1H)-one] |
| < 100 | CCn1cc(-n2ccc(=O)c(COc3ccc4ncc(-c5ccccc5C)cc4c3)n2)cn1 [Example 84, 1-(1-ethyl-1H-pyrazol-4-yl)-3-({[3-(2-methylphenyl)quinolin-6-yl]oxy}methyl)pyridazin-4(1H)-one] |
| < 100 | CCn1cc(-n2ccc(=O)c(COc3ccc4ncc(-c5cncnc5)cc4c3)n2)cn1 [Example 85, 1-(1-ethyl-1H-pyrazol-4-yl)-3-{[(3-pyrimidin-5-ylquinolin-6-yl)oxy]methyl}pyridazin-4(1H)-one] |
| < 100 | CCn1cc(-n2ccc(=O)c(COc3ccc4ncc(-c5cscn5)cc4c3)n2)cn1 [Example 86, 1-(1-ethyl-1H-pyrazol-4-yl)-3-({[3-(1,3-thiazol-4-yl)quinolin-6-yl]oxy}methyl)pyridazin-4(1H)-one] |
| < 100 | CCn1cc(-n2ccc(=O)c(COc3ccc4ncc(-c5ccc(N6CCOCC6)nc5)cc4c3)n2)cn1 [Example 87, 1-(1-ethyl-1H-pyrazol-4-yl)-3-({[3-(6-morpholin-4-ylpyridin-3-yl)quinolin-6-yl]oxy}methyl)pyridazin-4(1H)-one] |
| < 100 | CCn1cc(-n2ccc(=O)c(COc3ccc4ncc(-c5ccc(Cl)nc5)cc4c3)n2)cn1 [Example 88, 3-({[3-(6-chloropyridin-3-yl)quinolin-6-yl]oxy}methyl)-1-(1-ethyl-1H-pyrazol-4-yl)pyridazin-4(1H)-one] |

Reference: patent US20130116231A1, “TYROSINE KINASE INHIBITORS” (Merck Sharp & Dohme Corp., priority 2010, published 2013)
